Measurements reported in US6716851B2, “Substituted 2-aryl-4-arylaminopyrimidines and analogs as activators or caspases and inducers of apoptosis and the use thereof” (Cytovia, Inc., priority 2000, dated 2004).

Experiments:
T-47D cells = experiment: Caspase cascade activation (N-(Ac-DEVD)-N'-ethoxycarbonyl-R110 fluorogenic substrate) in T-47D cells; format: cell-based, Human; settings: 48 h incubation; for EC50: Homo sapiens, T47D, caspase activation potency, read-out: T47 EC50; for T47 Ratio 48 hr: caspase activity: ratio of net RFU of test compound to control
Experimental: (§1) Human breast cancer cell lines T-47D and ZR-75-1 were grown according to media component mixtures designated by American Type Culture Collection +10% FCS (Invitrogen Corporation, Life Technologies division), in a 5% CO2-95% humidity incubator at 37° C. T-47D and ZR-75-1 cells were maintained at a cell density between 50 and 80% confluency at a cell density of 0.1 to 0.6×10^6 cells/ml. Cells were harvested at 600× g and resuspended at 0.65×10^6 cells/ml into appropriate media +10% FCS. An aliquot of […] of cells was added to a well of a […] microtiter plate containing 2.5 μl of a 10% DMSO in RPMI-1640 media solution containing 0.16 to 100 μM of 4-(3-methoxyanilino)-2-(2-pyridinyl)-6-(trifluoromethyl)pyrimidine or other test compound (0.016 to 10 μM final). An aliquot of 22.5 μl of cells was added to a well of a 384-well microtiter plate containing 2.5 μl of a 10% DMSO in RPMI-1640 media solution without test compound as the control sample. The samples were mixed by agitation and then incubated at 37° C. for 48 h in a 5% CO2-95% humidity incubator. After incubation, the samples were removed from the incubator and 25 μl of a solution containing 14 μM of N-(Ac-DEVD)-N′-ethoxycarbonyl-R110 fluorogenic substrate (Cytovia, Inc.; WO99/18856), 20% sucrose (Sigma), 20 mM DTT (Sigma), 200 mM NaCl (Sigma), 40 mM Na PIPES buffer pH 7.2 (Sigma), and 500 μg/ml lysolecithin (Calbiochem) was added. The samples were mixed by agitation and incubated at room temperature. Using a fluorescent plate reader (Model SpectraMax Gemini, Molecular Devices), an initial reading (T=0) was made approximately 1-2 min after addition of the substrate solution, employing excitation at 485 nm and emission at 530 nm, to determine the background fluorescence of the control sample. After the 3 h incubation, the samples were read for fluorescence as above (T=3 h).
(§2) The Relative Fluorescence Unit values (RFU) were used to calculate the sample readings as follows:
(§3) RFU(T=3h)−Control RFU(T=0)=Net RFU(T=3h)
(§4) The activity of caspase cascade activation was determined by the ratio of the net RFU value for 4-(3-methoxyanilino)-2-(2-pyridinyl)-6-(trifluoromethyl)pyrimidine or other test compound to that of control samples. The EC50 (nM) was determined by a sigmoidal dose-response calculation (Prism 2.0, GraphPad Software Inc.).

ZR-75-1 cells = experiment: Caspase cascade activation (N-(Ac-DEVD)-N'-ethoxycarbonyl-R110 fluorogenic substrate) in ZR-75-1 cells; format: cell-based, Human; settings: ZR-75-1, 48 h incubation; for EC50: Homo sapiens, caspase activation potency; for ZR Ratio 48 hr: caspase activity: ratio of net RFU of test compound to control
Experimental: as §1, §2, §3, §4

| EC50 (T-47D cells) | EC50 (ZR-75-1 cells) | SMILES | T47 Ratio 48 hr (T-47D cells) | ZR Ratio 48 hr (ZR-75-1 cells) |
| --- | --- | --- | --- | --- |
| > 5000 nM | > 5000 nM | COc1cccc(Nc2nc(-c3ccc(C(F)(F)F)cn3)nc(C)c2Cl)c1 [Example 15, 4-(3-Methoxyanilino)-5-chloro-6-methyl-2-[5-(trifluoromethyl)-2-pyridinyl]pyrimidine] | 2.5 | 2.7 |
| 288 nM | 292 nM | COc1cccc(Nc2cc(C)nc(-c3ccccn3)n2)c1 [Example 16, 4-(3-Methoxyanilino)-6-methyl-2-(2-pyridinyl)pyrimidine] | 19.5 | 3.3 |
| > 5000 nM | 4900 nM | COc1cccc(Nc2nc(-c3ccccn3)ncc2OC)c1 [Example 18, 4-(3-Methoxyanilino)-5-methoxy-2-(2-pyridinyl)pyrimidine] | 1.9 | 7.8 |
| 471 nM | 214 nM | COc1cccc(Nc2cc(C(F)(F)F)nc(-c3cccnc3)n2)c1 [Example 19, 4-(3-Methoxyanilino)-2-(3-pyridinyl)-6-(trifluoromethyl)pyrimidine] | 16.7 | 8.9 |
| > 5000 nM | > 5000 nM | COCc1cc(Nc2cccc(OC)c2)nc(-c2cccc(C)c2)n1 [Example 20, 4-(3-Methoxyanilino)-6-(methoxymethyl)-2-(3-methylphenyl)pyrimidine] | 1.6 | 1.1 |
| < 156 nM | < 156 nM | COc1ccc(OC)c(Nc2cc(C)nc(-c3ccccn3)n2)c1 [Example 21, 4-(2,5-Dimethoxyanilino)-6-methyl-2-(2-pyridinyl)pyrimidine] | 15.5 | 12.0 |
| > 5000 nM | 6050 nM | COc1cccc(Nc2cc(C)nc(-c3ccccn3)n2)c1OC [Example 22, 4-(2,3-Dimethoxyanilino)-6-methyl-2-(2-pyridinyl)pyrimidine] | 1.9 | 3.5 |
| 19 nM | 69 nM | COc1ccc(OC)c(Nc2cc(C(F)(F)F)nc(-c3cccnc3)n2)c1 [Example 38, 4-(2,5-Dimethoxyanilino)-2-(3-pyridinyl)-6-(trifluoromethyl)pyrimidine] | 8.8 | 12.4 |
| 521 nM | > 5000 nM | COc1cccc(Nc2cc(C(F)(F)F)nc(-c3ccncc3)n2)c1 [Example 41, 4-(3-Methoxyanilino)-2-(4-pyridinyl)-6-(trifluoromethyl)pyrimidine] | 7.5 | 1.6 |
| 43 nM | 145 nM | COc1ccc(OC)c(Nc2cc(C(F)(F)F)nc(-c3ccncc3)n2)c1 [Example 42, 4-(2,5-Dimethoxyanilino)-2-(4-pyridinyl)-6-(trifluoromethyl)pyrimidine] | 5.8 | 2.5 |
| > 5000 nM | > 5000 nM | COCc1cc(Nc2cccc(OC)c2)nc(-c2csc(C)n2)n1 [Example 44, 4-(3-Methoxyanilino)-6-(methoxymethyl)-2-(2-methyl-1-3-thiazol-4-yl)pyrimidine] | 1.6 | 1.9 |
| 329 nM | 387 nM | COCc1cc(Nc2cc(OC)ccc2OC)nc(-c2csc(C)n2)n1 [Example 45, 4-(2,5-Dimethoxyanilino)-6-(methoxymethyl)-2-(2-methyl-1-3-thiazol-4-yl)pyrimidine] | 21.6 | 17.3 |
| > 5000 nM | > 5000 nM | COc1cccc(Nc2cc(N3CCOCC3)nc(-c3ccccc3)n2)c1 [Example 46, 6-Morpholino-4-(3-methoxyanilino)-2-phenyl-pyrimidine] | 1.5 | 1.4 |
| 172 nM | 322 nM | COc1ccc(Cl)c(Nc2cc(C(F)(F)F)nc(-c3cccnc3)n2)c1 [Example 50, 4-(2-Chloro-5-methoxyanilino)-2-(3-pyridinyl)-6-(trifluoromethyl)pyrimidine] | 10 | 5.3 |
| 29 nM | 56 nM | COc1ccc(C)c(Nc2cc(C(F)(F)F)nc(-c3cccnc3)n2)c1 [Example 51, 4-(5-Methoxy-2-methylanilino)-2-(3-pyridinyl)-6-(trifluoromethyl)pyrimidine] | 11 | 5.9 |
| 108 nM | 98 nM | COc1ccc(Cl)c(Nc2cc(C)nc(-c3ccccn3)n2)c1 [Example 52, 4-(2-Chloro-5-methoxyanilino)-6-methyl-2-(2-pyridinyl)pyrimidine] | 20.9 | 7.2 |
| 115 nM | 599 nM | COc1ccc(C)c(Nc2cc(C)nc(-c3ccccn3)n2)c1 [Example 53, 4-(5-Methoxy-2-methylanilino)-6-methyl-2-(2-pyridinyl)pyrimidine] | 20.4 | 6.6 |
| 99 nM | 101 nM | COc1ccc(Cl)c(Nc2cc(C(F)(F)F)nc(-c3ccncc3)n2)c1 [Example 54, 4-(2-Chloro-5-methoxyanilino)-2-(4-pyridinyl)-6-(trifluoromethyl)pyrimidine] | 10.5 | 5.9 |
| 21 nM | 18 nM | COc1ccc(C)c(Nc2cc(C(F)(F)F)nc(-c3ccncc3)n2)c1 [Example 55, 4-(5-Methoxy-2-methylanilino)-2-(4-pyridinyl)-6-(trifluoromethyl)pyrimidine] | 8.4 | 7.1 |
| > 5000 nM | > 5000 nM | Cn1cc(Br)c(-c2cccc(Nc3cc(C(F)(F)F)nc(-c4cccnc4)n3)c2)n1 [Example 58, 4-[3-(4-Bromo-1-methyl-1H-pyrazol-3-yl)anilino]-2-(3-pyridinyl)-6-(trifluoromethyl)pyrimidine] | 1.5 | 1.1 |
| < 150 nM | – | COc1ccc(OC)c(Nc2cc(C(F)(F)F)nc(-c3cnccn3)n2)c1 [Example 76, 4-(2,5-Dimethoxyanilino)-2-(2-pyrazinyl)-6-(trifluoromethyl)pyrimidine] | 8.5 | – |
| 254 nM | – | COc1ccc(Cl)c(Nc2cc(C(F)(F)F)nc(-c3cnccn3)n2)c1 [Example 82, 4-(2-Chloro-5-methoxyanilino)-2-(2-pyrazinyl)-6-(trifluoromethyl)pyrimidine] | 15.3 | – |
| 107 nM | – | Oc1ccc(Cl)c(Nc2cc(C(F)(F)F)nc(-c3cnccn3)n2)c1 [Example 194, 4-(2-Chloro-5-hydroxyanilino)-2-(2-pyrazinyl)-6-trifluoromethylpyrimidine] | 11.7 | – |
| 20 nM | – | COc1cc(Nc2cc(C(F)(F)F)nc(-c3ccccn3)n2)cc(OC)c1 [Example 195, 4-(3,5-Dimethoxyanilino)-2-(2-pyridinyl)-6-trifluoromethylpyrimidine] | 8.4 | – |
| 527 nM | – | Cc1ccc(C)c(Nc2cc(C(F)(F)F)nc(-c3cnccn3)n2)c1 [Example 196, 4-(2,5-Dimethylanilino)-2-(2-pyrazinyl)-6-trifluoromethylpyrimidine] | 11.3 | – |
